These results are taken from patent publication US20100056631A1, “ANTIALLERGENIC COMPOSITION” (OPHTECS CORPORATION, priority 2006, published 2010).

Assay [1] has as its system rat suffering from experimental allergenic conjunctivitis. In words: Evaluation test of itching suppression effect in rat model of chronically allergic conjunctivitis. Particulars: 5 μl eye drops to both eyes 5 min before local sensitizing reagent (egg albumin), scratching observed 20 min, repeated 8 days, total for 8 days vs test formulation No. 1 (FIG. 1, 2; significant level of 5%). Type of assay: in vivo. The procedure: 0.6 ml of a primary sensitizing reagent (a solution prepared by dissolving 20 mg of egg albumin, 40 mg of aluminum hydroxide gel and 2×10^11 units of an inactivated pertussis antigen in physiological saline) was administered to the footpads of both hands and both feet of a rat by using a 24G injection needle. Five days after the administration of the primary sensitizing reagent, 1 ml of a secondary sensitizing reagent (a solution prepared by dissolving 50 mg of egg albumin in 100 ml of physiological saline) was injected hypodermically into the back portion of the rat by using a 27G injection needle. From 14-th to 42-th days after the administration of the primary sensitizing reagent, 5 μl of drops of a local sensitizing reagent (a solution prepared by dissolving 500 mg of egg albumin in 50 ml of physiological saline) was administered to the both eyes of the rat, and the rat was put in an observation cage to observe the “scratching” of the rat for 20 minutes right after the administration of the ophthalmic solution. The rat which took this action 10 times or more within 20 minutes was used as a “rat suffering from experimental allergenic conjunctivitis” in the experiment. […]

Assay [2] deals with rat administered with an ophthalmic solution of histamine. In words: Effect of suppressing histamine-induced pruritus. Type of assay: in vivo. The conditions noted are these: 5 μl eye drops to both eyes 5 min before histamine 10 μmol/5 μl; scratching observed 20 min (FIG. 4). Here is the method:
In experiments on the evaluation of the effect of suppressing histamine-induced pruritus, test formulation No. 1 (0% of sodium D-3-hydroxybutyrate, referred to as PBS in FIG. 4) and test formulation No. 4 (1.0% of sodium D-3-hydroxybutyrate, referred to as 1% HBA in FIG. 4) shown in Table 1 and Intal (2% of sodium cromoglycate) and Livostin (0.025% of levocabastine hydrochloride) as Comparative formulation were used.
5 μl of an ophthalmic solution of the test formulation or Comparative formulation was administered to the both eyes of each rat each time. Five minutes after this, 10 μmol/5 μl of an ophthalmic solution of histamine was administered to one eye each time to induce pruritus in the rat. […] Meanwhile, Intal which is a chemical mediator isolation inhibitor was not effective (FIG. 4).

Regarding `C[C@@H](O)CC(=O)[O-].[Na+]` [Sodium D-3-hydroxybutyrate], the “number of times of scratching (itching suppression effect)” value in assay [1] is “suppressed the scratching of the rat suffering from an experimental allergy, dependent upon its volume”; in assay [1] (listed as sodium D-3-hydroxybutyrate), “excellent pruritus suppression effect”. For the same compound, the “scratching after histamine ophthalmic solution (effect of suppressing itching)” value in assay [2] is on record as “excellent pruritus suppression effect”.
